Target: T1, active p38 alpha enzyme (Upstate Biotechnology) (Homo sapiens, UniProt Q16539)
T1 construct: purchased Upstate Biotechnology
Assay: p38α biochemical assay (ATP turnover, luminescent detection, Cambrex PKlight)
Conditions: p38α kinase; Table 1 Biological Activity
Summary of the method: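 Active human p38α was incubated with full-length MapkapK2 protein as substrate and 1.4 uM ATP (final) for 2 hours at 30C. Buffer: 200 mM Tris, 100 mM MgCl2, 1.5 mM EGTA, 4 mM CaCl2, 20 mM MOPS, 1 mM EDTA, 1% glycerol, 0.1% β-mercaptoethanol, 1 mg/ml BSA. Total ATP turnover read by luminescence.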

T1 sequence (Q16539 whole entry): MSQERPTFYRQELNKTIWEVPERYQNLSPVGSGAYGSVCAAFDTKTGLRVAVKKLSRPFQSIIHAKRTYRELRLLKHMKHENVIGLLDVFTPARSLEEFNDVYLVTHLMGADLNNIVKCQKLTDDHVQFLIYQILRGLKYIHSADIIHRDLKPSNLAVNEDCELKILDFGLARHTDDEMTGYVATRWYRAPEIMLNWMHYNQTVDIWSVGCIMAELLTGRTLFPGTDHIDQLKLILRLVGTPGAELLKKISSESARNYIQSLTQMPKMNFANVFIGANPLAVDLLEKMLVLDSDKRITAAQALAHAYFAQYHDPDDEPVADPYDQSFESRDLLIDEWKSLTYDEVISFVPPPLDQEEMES

Compound | IC50
COc1ccccc1NCc1nc(-c2ccc(F)cc2)c(-c2nc(C(=O)NC(C)C)cs2)o1 [Example 1326] | > 1 µM
Cc1c(F)cccc1NCc1nc(-c2ccc(F)cc2)c(-c2nc(C(=O)NC(C)C)cs2)o1 [Example 1329] | > 1 µM
CC(C)NC(=O)c1csc(-c2oc(CNc3ccc4c(c3)CCC4)nc2-c2ccc(F)cc2)n1 [Example 1333] | > 1 µM
CC(C)NC(=O)c1csc(-c2oc(CNc3ccccc3C(C)C)nc2-c2ccc(F)cc2)n1 [Example 1334] | > 1 µM
CC(=O)c1cccc(NCc2nc(-c3ccc(F)cc3)c(-c3nc(C(=O)NC(C)C)cs3)o2)c1 [Example 1335] | > 1 µM
CC(=O)c1ccc(NCc2nc(-c3ccc(F)cc3)c(-c3nc(C(=O)NC(C)C)cs3)o2)cc1 [Example 1336] | > 1 µM
Cc1cc(C)c(NCc2nc(-c3ccc(F)cc3)c(-c3nc(C(=O)NC(C)C)cs3)o2)c(C)c1 [Example 1338] | > 1 µM
CC(C)NC(=O)c1csc(-c2oc(CNc3ccc4c(c3)OCO4)nc2-c2ccc(F)cc2)n1 [Example 1339] | > 1 µM
CCOc1cccc(NCc2nc(-c3ccc(F)cc3)c(-c3nc(C(=O)NC(C)C)cs3)o2)c1 [Example 1341] | > 1 µM
CCOc1ccccc1NCc1nc(-c2ccc(F)cc2)c(-c2nc(C(=O)NC(C)C)cs2)o1 [Example 1342] | > 1 µM
CSc1ccccc1NCc1nc(-c2ccc(F)cc2)c(-c2nc(C(=O)NC(C)C)cs2)o1 [Example 1343] | > 1 µM
CC(C)NC(=O)c1csc(-c2oc(CNc3cnc4ccccc4c3)nc2-c2ccc(F)cc2)n1 [Example 1346] | > 1 µM
CC(C)NC(=O)c1csc(-c2oc(CNc3cc(F)c(F)cc3F)nc2-c2ccc(F)cc2)n1 [Example 1347] | > 1 µM
CC(C)NC(=O)c1csc(-c2oc(CNc3ccccc3C(C)(C)C)nc2-c2ccc(F)cc2)n1 [Example 1348] | > 1 µM
CC(C)NC(=O)c1csc(-c2oc(CNc3ccc4ncsc4c3)nc2-c2ccc(F)cc2)n1 [Example 1350] | > 1 µM
CC(=O)Nc1ccc(NCc2nc(-c3ccc(F)cc3)c(-c3nc(C(=O)NC(C)C)cs3)o2)cn1 [Example 1352] | > 1 µM
CC(C)NC(=O)c1csc(-c2oc(CNc3ccc(C(F)(F)F)cc3)nc2-c2ccc(F)cc2)n1 [Example 1355] | > 1 µM
CC(C)NC(=O)c1csc(-c2oc(CNc3cccc(C(F)(F)F)c3)nc2-c2ccc(F)cc2)n1 [Example 1356] | > 1 µM

Further lines, results first:

IC50 | Compound
> 1 µM | COc1ccncc1NCc1nc(-c2ccc(F)cc2)c(-c2nc(C(=O)NC(C)C)cs2)o1 [Example 1327]
> 1 µM | Cc1ccc(NCc2nc(-c3ccc(F)cc3)c(-c3nc(C(=O)NC(C)C)cs3)o2)cc1F [Example 1328]
> 1 µM | CC(C)NC(=O)c1csc(-c2oc(CNc3cc(F)cc(F)c3)nc2-c2ccc(F)cc2)n1 [Example 1330]
> 1 µM | CC(C)NC(=O)c1csc(-c2oc(CNc3ccc(F)cc3F)nc2-c2ccc(F)cc2)n1 [Example 1331]
> 1 µM | CCc1cccc(C)c1NCc1nc(-c2ccc(F)cc2)c(-c2nc(C(=O)NC(C)C)cs2)o1 [Example 1337]
> 1 µM | COc1ccc(NCc2nc(-c3ccc(F)cc3)c(-c3nc(C(=O)NC(C)C)cs3)o2)c(C)c1 [Example 1340]
> 1 µM | Cc1c(Cl)cccc1NCc1nc(-c2ccc(F)cc2)c(-c2nc(C(=O)NC(C)C)cs2)o1 [Example 1344]
> 1 µM | Cc1ccc(NCc2nc(-c3ccc(F)cc3)c(-c3nc(C(=O)NC(C)C)cs3)o2)cc1Cl [Example 1345]
> 1 µM | Cc1cccc(C(C)C)c1NCc1nc(-c2ccc(F)cc2)c(-c2nc(C(=O)NC(C)C)cs2)o1 [Example 1349]
> 1 µM | CC(=O)Nc1ccc(NCc2nc(-c3ccc(F)cc3)c(-c3nc(C(=O)NC(C)C)cs3)o2)cc1 [Example 1351]
> 1 µM | CC(C)NC(=O)c1csc(-c2oc(CNc3ccc4c(c3)OCCO4)nc2-c2ccc(F)cc2)n1 [Example 1353]
> 1 µM | CC(C)NC(=O)c1csc(-c2oc(CNc3ccccc3-n3cccc3)nc2-c2ccc(F)cc2)n1 [Example 1354]
